From article PMC8069832, “New Amides and Phosphoramidates Containing Selenium: Studies on Their Cytotoxicity and Antioxidant Activities in Breast Cancer” (Antioxidants, 2021)

How the values were obtained:
BEAS-2B = assay: MTT cytotoxicity in nonmalignant bronchial epithelium cells; assay type: cell-based; conditions: for GI50 / IC (TGI): Homo sapiens, BEAS-2B, nonmalignant cells, 48 h; for GI50: read-out: GI50 BEAS-2B; for IC (TGI): read-out: TGI BEAS-2B
Description: (§1) Cell lines were provided by the European Collection of Cell Cultures (ECACC) or by the American Type Culture Collection (ATCC). Seven cell lines were used: MCF-7 (breast adenocarnicoma), 184B5 (nonmalignant, mammary gland derived), CCRF-CEM (lymphoblastic leukemia), HT-29 (colon carcinoma), HTB-54 (lung carcinoma), BEAS-2B (nonmalignant, derived from the bronchial epithelium) and PC-3 (prostate carcinoma). MCF-7, CCRF-CEM, HT-29, HTB-54, BEAS-2B and PC-3 cell lines were grown in RPMI medium (Gibco) supplemented with 10% fetal bovine serum (FBS; Gibco), 100 units/mL penicillin and […] streptomycin (Gibco). 184B5 cells were grown in DMEM/F12 medium supplemented with 5% FBS, 1 × ITS (Lonza), 100 nM hydrocortisone (Aldich), 2 mM sodium pyruvate (Lonza), 20 ng/mL EGF (Sigma-Aldrich), 0.3 nM trans-retinoic acid (Sigma-Aldrich), 100 units/mL penicillin and […] streptomycin. Cells were maintained at 37 °C and 5% CO2.
(§2) The cytotoxic effect of each substance was tested by the MTT method. Each compound was initially dissolved in DMSO at a concentration of 0.01 M, and serial dilutions were prepared with nonsupplemented medium. The cytotoxic effect of each compound was tested at 50 and 10 µM as a first screening. […]
(§3) A total of 1 × 10^4 cells/well in 96-well plates were treated with increasing concentrations of the corresponding compounds for 48 h at 37 °C in a humidified atmosphere containing 5% CO2. Then, cells were incubated with 50 µL of MTT (2 mg/mL stock) for 4 h. The medium was then removed by aspiration, and the formazan crystals were dissolved in […] of DMSO. […] Data were obtained from at least 3 independent experiments performed in quadruplicate. The standard error of the means (SEM) for the cytotoxic parameters was calculated applying the standard deviation formula to the mean values of each parameter for the three independent experiments performed.
(§4) . Cisplatin was used as a standard drug. […]. […] The presence of electron-withdrawing groups (-NO2, -CF3, -Cl) in the phenyl ring favored the cytotoxic activity in the amides, but in the phosphoramidates, the best results were obtained for aliphatic chains methoxy (II.1b, II.2b) and ethoxy (II.1d, II.2d). […].
(§5) The lack of selectivity toward cancerous cells is one of the major issues during the discovery and development of new anticancer agents. Therefore, we evaluated the cytotoxic activity of our compounds against two cell lines derived from nonmalignant breast tissue (184B5) and no malignant bronchial epithelium (BEAS-2B) (Table 2). […].

[1] = as above; assay type: cell-based; conditions: human
Description: as §1, §2, §3, §4, §5

MCF-7 = assay: cells; conditions: Homo sapiens, MCF7, 48 h; for activity at 10 µM: read-out: Cell growth (%) MCF-7; for GI50: read-out: GI50 MCF-7, 48 h, average ± SEM; for CC50: read-out: LC50 MCF-7; for IC (TGI): read-out: TGI MCF-7
HT-29 = assay: cells; conditions: Homo sapiens, HT-29, 48 h; for activity at 10 µM: read-out: Cell growth (%) HT-29; for GI50: read-out: GI50 HT-29; for CC50: read-out: LC50 HT-29; for IC (TGI): read-out: TGI HT-29
CCRF-CEM = assay: cells; conditions: Homo sapiens, 48 h; for activity at 10 µM: read-out: Cell growth (%) CCRF-CEM; for GI50: read-out: GI50 CCRF-CEM; for CC50: read-out: LC50 CCRF-CEM; for IC (TGI): read-out: TGI CCRF-CEM
PC-3 = assay: cells; assay type: cell-based; conditions: Homo sapiens; for LC50: PC-3, 48 h, read-out: LC50 PC-3; for GI50 / IC (TGI): PC-3, 48 h, average ± SEM; for GI50: read-out: GI50 PC-3; for IC (TGI): read-out: TGI PC-3
Description: as §1, §2, §3, §4

HTB-54 = assay: cells; assay type: cell-based; conditions: Homo sapiens; for CC50: HTB-54, 48 h, read-out: LC50 HTB54; for GI50 / IC (TGI): HTB-54, 48 h, average ± SEM; for GI50: read-out: GI50 HTB54; for IC (TGI): read-out: TGI HTB54
Description: as §1, §2, §3, §4

[2] = MTT cytotoxicity in nonmalignant mammary gland derived cells; assay type: cell-based; conditions: human
Description: as §1, §2, §3, §4, §5

184B5 = assay: as above; assay type: cell-based; conditions: for GI50 / IC (TGI): Homo sapiens, 184B5, nonmalignant cells, 48 h; for GI50: read-out: GI50 184B5; for IC (TGI): read-out: TGI 184B5; for Selectivity index (SI) = GI50 (184B5)/GI50 (MCF-7): breast
Description: as §1, §2, §3, §4, §5

[3] = DPPH radical scavenging assay; conditions: for DPPH activity inhibition: 0.03 mg/mL, after 30 min
Description: The DPPH (1,1-diphenyl-2-picrylhydrazyl radical) assay measures the hydrogen donation ability of the antioxidant to convert the stable DPPH free radical into 1,1-diphenyl-2-(2,4,6-trinitrophenyl)-hydrazine. After radical reaction with the compounds, a decrease in the absorbance was detected at 517 nm, which is accompanied by a change of color from violet to light-yellow. The target compounds were dissolved in methanol to make 1 mg/mL stock solutions, which were diluted to five concentrations as test samples. Ascorbic acid was used as a standard, and the experiment was carried out on 96-well plates. The DPPH solution was prepared at a 100 µM concentration. For each test, 100 µL of DPPH solution was added to 100 µL of methanolic solution containing the tested derivatives, and the absorbance was determined at different time points. All the measurements were carried out in triplicate. Results were expressed as the percentage of the radical scavenged, calculated using the following formula:(1) % DPPH radical scavenging=Acontrol − Asample/Acontrol × 100 where Acontrol refers to the absorbance of the negative control, and Asample refers to the absorbance of the tested compounds. Results are expressed as a percentage of DPPH radical scavenged ± SEM.
. Ascorbic acid and Trolox were used as radical scavenger gold standards. […]. No correlation was found for either structure–radical scavenging activity or antitumor–radical scavenging activity, except for compound I.2f, one of the selected cytotoxic agents. To further confirm this antioxidant activity, three compounds (I.1e, I.1g and I.2i) were also evaluated as DPPH radical scavengers at a lower concentration of 0.003 mg/mL (Figure 3B).

| SMILES | GI50 (BEAS-2B) [µM] | IC (TGI) (BEAS-2B) [µM] | LC50 (50% lethal concentration) at 48 h [1] [µM] | activity at 10 µM (MCF-7) [%] | GI50 (MCF-7) [µM] | CC50 (MCF-7) [µM] | IC (TGI) (MCF-7) [µM] | activity at 10 µM (HT-29) [%] | GI50 (HT-29) [µM] | CC50 (HT-29) [µM] | IC (TGI) (HT-29) [µM] | activity at 10 µM (CCRF-CEM) [%] | GI50 (CCRF-CEM) [µM] | CC50 (CCRF-CEM) [µM] | IC (TGI) (CCRF-CEM) [µM] | LC50 (PC-3) [µM] | GI50 (PC-3) [µM] | IC (TGI) (PC-3) [µM] | CC50 (HTB-54) [µM] | GI50 (HTB-54) [µM] | further results |
| --- | --- | --- | --- | --- | --- | --- | --- | --- | --- | --- | --- | --- | --- | --- | --- | --- | --- | --- | --- | --- | --- |
| O=C(Nc1ccc([Se][Se]c2ccc(NC(=O)c3ccc(Cl)cc3)cc2)cc1)c1ccc(Cl)cc1 [I.1b] | 1.11 | 42.8 | > 100 | 19.8 | 4.6 ± 0.5 | > 100 | > 100 | -10.7 | 3 ± 1.8 | > 100 | 7.7 ± 0.6 | 45.5 | 9 ± 1.6 | > 100 | 72.6 ± 1.1 | > 100 | 7.7 ± 2.2 | > 100 | > 100 | > 100 | IC (TGI) (HTB-54): > 100 µM; LC50 (50% lethal concentration) at 48 h [2]: > 100 µM; GI50 (184B5): 7.08 µM; IC (TGI) (184B5): > 100 µM; Selectivity index (SI) = GI50 (184B5)/GI50 (MCF-7) (184B5): 1.57 |
| Cc1ccc(C(=O)Nc2ccc([Se][Se]c3ccc(NC(=O)c4ccc(C)cc4)cc3)cc2)cc1 [I.1g] |  |  |  | 57.5 |  |  |  | 109 |  |  |  | 105 |  |  |  |  |  |  |  |  | DPPH radical scavenging activity ([3]; 0.003 mg/mL): some moderate effect was observed; DPPH activity inhibition [3]: greater than 35% |
| O=C(Nc1ccc([Se][Se]c2ccc(NC(=O)c3ccco3)cc2)cc1)c1ccco1 [I.1h] | 10.6 | 40.6 | 70.7 | 63.5 | 18 ± 2.3 | 76.6 ± 2.5 | 47.3 ± 2.4 | 62.1 | 17.4 ± 1.9 | 74.3 ± 0.7 | 45.8 ± 1.2 | 34.1 | 4.1 ± 2.4 | 72.8 ± 2.9 | 36.1 ± 1.4 | 65.6 ± 4.1 | 2.3 ± 0.3 | 27.6 ± 2.8 | 76.3 ± 3.6 | 20.8 ± 2.5 | Selectivity index (SI) = GI50 (BEAS-2B)/GI50 (HTB-54) (BEAS-2B; lung): 0.51; IC (TGI) (HTB-54): 48.6 ± 1.8 µM; LC50 (50% lethal concentration) at 48 h [2]: 74.4 µM; GI50 (184B5): 19.9 µM; IC (TGI) (184B5): 47.2 µM; Selectivity index (SI) = GI50 (184B5)/GI50 (MCF-7) (184B5): 1.11 |
| CSc1ccc(C(=O)Nc2ccc([Se][Se]c3ccc(NC(=O)c4ccc(SC)cc4)cc3)cc2)cc1 [I.1n] |  |  |  | 64 |  |  |  | 50.6 |  |  |  | 72.1 |  |  |  |  |  |  |  |  | DPPH activity inhibition [3]: greater than 35% |
